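Tested at 5 concentrations; 48 h exposure; 96-well plates; endpoints linearly interpolated, else capped at highest concentration. TGI marks complete inhibition of growth.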
What was measured:
Assay in all cases: NCI tumour cell line growth inhibition, 48 h
M14 melanoma = system: M14 melanoma
SNB-75 CNS = system: SNB-75 CNS
DMS 114 small cell lung = system: DMS 114 small cell lung
SK-MEL-2 melanoma = system: SK-MEL-2 melanoma
NCI-H460 lung = system: NCI-H460 lung
CCRF-CEM leukemia = system: CCRF-CEM leukemia
SW-620 colon = system: SW-620 colon
PC-3 prostate = system: PC-3 prostate
OVCAR-4 ovarian = system: OVCAR-4 ovarian
SK-MEL-5 melanoma = system: SK-MEL-5 melanoma
OVCAR-8 ovarian = system: OVCAR-8 ovarian
DLD-1 colon = system: DLD-1 colon
MDA-N = system: MDA-N
NCI-H522 lung = system: NCI-H522 lung
786-0 renal = system: 786-0 renal
MOLT-4 leukemia = system: MOLT-4 leukemia
SK-MEL-28 melanoma = system: SK-MEL-28 melanoma
K-562 leukemia = system: K-562 leukemia
HL-60(TB) leukemia = system: HL-60(TB) leukemia
HOP-62 NSCLC = system: HOP-62 NSCLC
UO-31 renal = system: UO-31 renal
A549 NSCLC = system: A549 NSCLC
RPMI-8226 leukemia = system: RPMI-8226 leukemia
DMS 273 small cell lung = system: DMS 273 small cell lung
ACHN renal = system: ACHN renal
TK-10 renal = system: TK-10 renal
UACC-62 melanoma = system: UACC-62 melanoma
LXFL 529 NSCLC = system: LXFL 529 NSCLC
NCI-H226 lung = system: NCI-H226 lung
U251 CNS = system: U251 CNS
SNB-19 CNS = system: SNB-19 CNS
XF 498 CNS = system: XF 498 CNS
SNB-78 CNS = system: SNB-78 CNS
MDA-MB-231 breast = system: MDA-MB-231 breast
EKVX NSCLC = system: EKVX NSCLC
KM20L2 colon = system: KM20L2 colon
RXF 393 renal = system: RXF 393 renal
SN12C renal = system: SN12C renal
IGROV1 ovarian = system: IGROV1 ovarian
MCF7 breast = system: MCF7 breast
CAKI-1 renal = system: CAKI-1 renal
SF-268 CNS = system: SF-268 CNS
HCT-15 colon = system: HCT-15 colon
SK-OV-3 ovarian = system: SK-OV-3 ovarian
SF-295 CNS = system: SF-295 CNS
M19-MEL melanoma = system: M19-MEL melanoma
MALME-3M melanoma = system: MALME-3M melanoma
T-47D breast = system: T-47D breast
A498 renal = system: A498 renal
LOX IMVI melanoma = system: LOX IMVI melanoma
HT29 colon = system: HT29 colon
NCI/ADR-RES ovarian = system: NCI/ADR-RES ovarian
KM12 colon = system: KM12 colon
SR leukemia = system: SR leukemia
HCT-116 colon = system: HCT-116 colon
UACC-257 melanoma = system: UACC-257 melanoma
OVCAR-5 ovarian = system: OVCAR-5 ovarian
HOP-92 NSCLC = system: HOP-92 NSCLC
MDA-MB-435 = system: MDA-MB-435
HCC-2998 colon = system: HCC-2998 colon
OVCAR-3 ovarian = system: OVCAR-3 ovarian
SF-539 CNS = system: SF-539 CNS
DU-145 prostate = system: DU-145 prostate
NCI-H23 lung = system: NCI-H23 lung
BT-549 breast = system: BT-549 breast
COLO 205 colon = system: COLO 205 colon

COc1ccc2nc(C)cc(NCCCCCCCCCNc3cc(C)nc4ccc(OC)cc34)c2c1
TGI (M14 melanoma): 5.9 µM
TGI (SNB-75 CNS): 12.5 µM
TGI (DMS 114 small cell lung): 2.51 µM
TGI (SK-MEL-2 melanoma): 10.8 µM
TGI (NCI-H460 lung): 1.77 µM
TGI (CCRF-CEM leukemia): 11.2 µM
TGI (SW-620 colon): 2.32 µM
TGI (PC-3 prostate): 5.01 µM
TGI (OVCAR-4 ovarian): 9.32 µM
TGI (SK-MEL-5 melanoma): 3.11 µM
TGI (OVCAR-8 ovarian): 1.42 µM
TGI (DLD-1 colon): 6.61 µM
TGI (MDA-N): 2.83 µM
TGI (NCI-H522 lung): 2.13 µM
TGI (786-0 renal): 2.31 µM
TGI (MOLT-4 leukemia): > 34.7 µM
TGI (SK-MEL-28 melanoma): 29.9 µM
TGI (K-562 leukemia): 2.93 µM
TGI (HL-60(TB) leukemia): 5.25 µM
TGI (HOP-62 NSCLC): 10.6 µM
TGI (UO-31 renal): 28.3 µM
TGI (A549 NSCLC): 8.3 µM
TGI (RPMI-8226 leukemia): > 24.7 µM
TGI (DMS 273 small cell lung): 13.4 µM
TGI (ACHN renal): 21.2 µM
TGI (TK-10 renal): 9.77 µM
TGI (UACC-62 melanoma): 7.34 µM
TGI (LXFL 529 NSCLC): 2.4 µM
TGI (NCI-H226 lung): 27.6 µM
TGI (U251 CNS): 5.77 µM
TGI (SNB-19 CNS): 10.2 µM
TGI (XF 498 CNS): 3.69 µM
TGI (SNB-78 CNS): 26.4 µM
TGI (MDA-MB-231 breast): 2.54 µM
TGI (EKVX NSCLC): 7.36 µM
TGI (KM20L2 colon): 6.36 µM
TGI (RXF 393 renal): 5.96 µM
TGI (SN12C renal): 11.4 µM
TGI (IGROV1 ovarian): 9.1 µM
TGI (MCF7 breast): 2.47 µM
TGI (CAKI-1 renal): 18.3 µM
TGI (SF-268 CNS): 11.3 µM
TGI (HCT-15 colon): 5.32 µM
TGI (SK-OV-3 ovarian): 25.7 µM
TGI (SF-295 CNS): 2.33 µM
TGI (M19-MEL melanoma): 31.9 µM
TGI (MALME-3M melanoma): 17.7 µM
TGI (T-47D breast): 3.46 µM
TGI (A498 renal): 43.4 µM
TGI (LOX IMVI melanoma): 1.99 µM
TGI (HT29 colon): 2.05 µM
TGI (NCI/ADR-RES ovarian): 34.8 µM
TGI (KM12 colon): 2.74 µM
TGI (SR leukemia): 29.3 µM
TGI (HCT-116 colon): 1.46 µM
TGI (UACC-257 melanoma): 21.2 µM
TGI (OVCAR-5 ovarian): 15.2 µM
TGI (HOP-92 NSCLC): 5.21 µM
TGI (MDA-MB-435): 2.95 µM
TGI (HCC-2998 colon): 2.73 µM
TGI (OVCAR-3 ovarian): 2.76 µM
TGI (SF-539 CNS): 2.4 µM
TGI (DU-145 prostate): 19.5 µM
TGI (NCI-H23 lung): 6.89 µM
TGI (BT-549 breast): 21.1 µM
TGI (COLO 205 colon): 7.47 µM

Oc1c(-c2ccccc2)nc2ccccn12
TGI (M14 melanoma): > 100 µM
TGI (SNB-75 CNS): > 100 µM
TGI (DMS 114 small cell lung): > 100 µM
TGI (SK-MEL-2 melanoma): > 100 µM
TGI (NCI-H460 lung): > 100 µM
TGI (CCRF-CEM leukemia): > 100 µM
TGI (SW-620 colon): > 100 µM
TGI (OVCAR-4 ovarian): > 100 µM
TGI (SK-MEL-5 melanoma): > 100 µM
TGI (OVCAR-8 ovarian): > 100 µM
TGI (DLD-1 colon): > 100 µM
TGI (NCI-H522 lung): > 100 µM
TGI (786-0 renal): > 100 µM
TGI (MOLT-4 leukemia): > 100 µM
TGI (SK-MEL-28 melanoma): > 100 µM
TGI (K-562 leukemia): > 100 µM
TGI (HL-60(TB) leukemia): > 100 µM
TGI (HOP-62 NSCLC): > 100 µM
TGI (UO-31 renal): > 100 µM
TGI (A549 NSCLC): > 100 µM
TGI (DMS 273 small cell lung): > 100 µM
TGI (ACHN renal): > 100 µM
TGI (TK-10 renal): > 100 µM
TGI (UACC-62 melanoma): > 100 µM
TGI (LXFL 529 NSCLC): > 100 µM
TGI (NCI-H226 lung): > 100 µM
TGI (U251 CNS): > 100 µM
TGI (SNB-19 CNS): > 100 µM
TGI (XF 498 CNS): > 100 µM
TGI (SNB-78 CNS): > 100 µM
TGI (EKVX NSCLC): > 100 µM
TGI (KM20L2 colon): > 100 µM
TGI (RXF 393 renal): > 100 µM
TGI (SN12C renal): > 100 µM
TGI (IGROV1 ovarian): > 100 µM
TGI (CAKI-1 renal): > 100 µM
TGI (SF-268 CNS): > 100 µM
TGI (SK-OV-3 ovarian): > 100 µM
TGI (SF-295 CNS): > 100 µM
TGI (M19-MEL melanoma): > 100 µM
TGI (MALME-3M melanoma): > 100 µM
TGI (A498 renal): > 100 µM
TGI (HT29 colon): > 100 µM
TGI (KM12 colon): > 100 µM
TGI (SR leukemia): > 100 µM
TGI (HCT-116 colon): > 100 µM
TGI (UACC-257 melanoma): > 100 µM
TGI (OVCAR-5 ovarian): > 100 µM
TGI (HCC-2998 colon): > 100 µM
TGI (OVCAR-3 ovarian): > 100 µM
TGI (SF-539 CNS): > 100 µM
TGI (NCI-H23 lung): > 100 µM
